Data on two substances can be found in patent US20230203126A1, “A COMPOSITION COMPRISING S-ARRESTIN PEPTIDES” (WORG PHARMACEUTICALS (HANGZHOU) CO., LTD., priority 2019, published 2023).

The subject of experiment [1] is MHC II molecules on dendritic cells (CD11c+ cells). As to the kind of experiment: In vivo MHC class II loading assay (DR3tg mice). The arrangement: species or system HLA-DR3-transgenic mice. The settings on record: 100 µg peptide s.c., spleen 2 h post injection, 72 h co-culture, vs PBS-injected control. The protocol: FIG. 2: Peptide 17JK is correctly loaded on MHC class II in vivo. Response of peptide-specific CD4+ T cells towards peptide loaded in vivo on dendritic cells is shown. HLA-DR3-transgenic mice were injected subcutaneously with 100 µg of 17JK peptide. 2 h post injection, spleens were dissected and CD11c+ cells (dendritic cells) were isolated. These CD11c+ cells were co-cultured with peptide-specific CD4+ cells for 72 h at 37° C. IFNy was measured in the supernatant of these cultures to evaluate the response to peptide by the CD4+ T cells. (*** p<0.001 Mann-Whitney U-test)
FIG. 3: Peptide 15N3K is correctly loaded on MHC class II in vivo. […] IFNy was measured in the supernatant of these cultures to evaluate the response to peptide by the CD4+ T cells. […]
When 100 µg of peptide 9K1K was injected in DR2tg mice or when peptide 17JK or 15N3K was injected in DR3tg mice, these peptides could be detected on dendritic cells (CD11c+ cells) in the spleens of these mice 2 h post injection. Activation (IFNY production) of peptide-specific CD4+ T cells by the isolated CD11 c+ cells was used as a read-out. […]
DR3tg or DR2tg mice were injected with 100 µg of peptide in 100 µl PBS subcutaneously (s.c.) in the flank. […] After 72 hours, supernatant of these co-cultures was collected and CD4+ T cell activation was analysed by IFNy ELISA (R&D Systems, Abingdon, UK). […]

Experiment [2] has as its target HLA-DRA1*0101, DRB1*0101 (DR1) (Homo sapiens, UniProt P01903+P01911, A100R/D57E/F55L/F60I/F76Y/I96L/L162R/M171V/P40L/Q125E/R42F/V115G/Y59C). As to the kind of experiment: DR1. The protocol: (§1) Table printed on a drawing sheet, Figure 9
(§2) The patent's description of the figure: FIG. 9: Diverse patterns of in vitro peptide-MHC II binding for peptides 9K1, 17JK and 15N3K. Binding of peptides 9K1, 17JK and 15N3K to recombinant HLA-DRA1*0101, DRB1*0101 (DR1), DRB1*1501 (DR2), DRB1*0301 (DR3), DRB1*0401 (DR4), DRB1*1101 (DR11), DRB1*0405 (DR4*05) and DRB1*0901 (DR9) was assessed in vitro. IC50 values (µM) are presented and colour-coded per HLA-DR molecule. Low values (green) indicate strong binding, high values (red) indicate low(er) binding.
(§3) FIG. 9 depicts IC50 (µM) values of peptides 9K1K, 17JK and 15N3K binding to the indicated HLA-DR molecules and competing with a known competitor peptide. Values should be compared only within each HLA-DR molecule. Low IC50 values (green) indicate the strongest binder per HLA-DR molecule. Highest values per HLA-DR molecule (red) are indicative of the lowest binder for that HLA-DR molecule. Intermediate values are indicated in orange. […]
(§4) First copying reader's note: The sheet prints no unit; per the patent description the values are IC50 (µM) for peptide binding to the named HLA-DR molecules, with cell shading coding relative binding strength per HLA-DR molecule.
Where the first naming reader finds the target: description_of_the_figure: recombinant HLA-DRA1*0101, DRB1*0101 (DR1)

For experiment [3], the target named is HLA-DRA1*0101, DRB1*0405 (DR4*05) (Homo sapiens, UniProt P01903+P01911, A100R/A169T/D86S/F76Y/I96L/K127E/L162R/M171V/N62H/P40V/Q125Y/R42H/S133A/S149N/S66Y/V115G/V209L/W38E). Nature of the experiment: DR4*05. The protocol:
as §1
Head of the field: DR4*05
as §2
FIG. 9 depicts IC50 (µM) values of peptides 9K1K, 17JK and 15N3K binding to the indicated HLA-DR molecules and competing with a known competitor peptide. Values should be compared only within each HLA-DR molecule. Low IC50 values (green) indicate the strongest binder per HLA-DR molecule. Highest values per HLA-DR molecule (red) are indicative of the lowest binder for that HLA-DR molecule. Intermediate values are indicated in orange. […] So, combining the peptides into a cocktail treatment, makes the treatment less restricted to a certain HLA-DR type.
as §4

Experiment [4] has as its target HLA-DRA1*0101, DRB1*0301 (DR3) (Homo sapiens, UniProt P01903+P01911, A100K/A102G/A103R/A169T/F55Y/I96L/K41T/L162R/M171V/P40S/Q125H/Q178H/Q39Y/R42S/S66N/T106N/T262R/W38E/Y61H). As to the kind of experiment: DR3. The method, then:
as §1, §2, §3, §4
Where the first naming reader finds the target: description_of_the_figure: recombinant HLA-DRA1*0101, DRB1*0101 (DR1), DRB1*1501 (DR2), DRB1*0301 (DR3)

Experiment [5] deals with HLA-DRA1*0101, DRB1*0401 (DR4) (Homo sapiens, UniProt P01903+P01911, A100K/A169T/F76Y/I96L/K127E/L162R/M171V/N62H/P40V/Q125Y/R42H/S133A/S149N/S66Y/V115G/V209L/W38E). As to the kind of experiment: DR4. The protocol: as §1, §2, §3, §4
Where the first naming reader finds the target: description_of_the_figure: recombinant HLA-DRA1*0101, DRB1*0101 (DR1), DRB1*1501 (DR2), DRB1*0301 (DR3), DRB1*0401 (DR4)

No end group written: not given here.

HLA-DRA1*0101, DRB1*0301 (DR3), sequence (P01903 26-254 limits assumed, other chains not shown): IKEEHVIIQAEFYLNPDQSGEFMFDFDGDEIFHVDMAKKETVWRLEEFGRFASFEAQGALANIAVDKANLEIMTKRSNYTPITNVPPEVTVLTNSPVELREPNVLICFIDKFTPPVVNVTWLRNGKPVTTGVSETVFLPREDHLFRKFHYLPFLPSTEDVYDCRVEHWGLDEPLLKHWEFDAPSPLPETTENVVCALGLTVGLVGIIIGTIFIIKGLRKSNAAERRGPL

With KKKLTFRRDLYFSRVQVYKKK-NH2 [17JK], in experiment [1], the “CD4+ T cell activation (IFNy) by CD11c+ cells isolated from spleen of injected mice” value is on record as “significant CD4+ T cell activation”. Further, the IC50 (in general, the point on the concentration scale where inhibition reaches its midpoint) in experiment [2] came to 2.16 µM; in experiment [3], 17.3 µM.
With KKKVIFKKISRDKSVTIYLGKKK-NH2 [15N3K], in experiment [1], the “CD4+ T cell activation (IFNy) by CD11c+ cells isolated from spleen of injected mice” value was “significant CD4+ T cell activation”. The IC50 in experiment [4] came to 14.7 µM; in experiment [5], 0.84 µM.
